# Measured values: ChEMBL document CHEMBL5236582, “Trehalose diesters containing a polar functional group-modified lipid moiety: Synthesis and evaluation of Mincle-mediated signaling activity” (Bioorg Med Chem, 2022)
# Active and inactive are the calls of the source. No cut-off for these calls is given here.
# Legend:
# [1] = molecular target: T1, C-type lectin domain family 4 member E (Mus musculus) (UniProt Q9R0Q8); test: Induction of mouse Mincle expressed in NFAT-GFP reporter cells assessed as induction of mincle-mediated NFAT signaling activity by measuring stimulation of GFP reporter activity at 0.001 to 0.1 nmol/well incubated for 18 hrs by flow cytometry; format: cell-based; settings: filed as agonist, dose 0.001-0.1 nmol
# T1 sequence (whole entry): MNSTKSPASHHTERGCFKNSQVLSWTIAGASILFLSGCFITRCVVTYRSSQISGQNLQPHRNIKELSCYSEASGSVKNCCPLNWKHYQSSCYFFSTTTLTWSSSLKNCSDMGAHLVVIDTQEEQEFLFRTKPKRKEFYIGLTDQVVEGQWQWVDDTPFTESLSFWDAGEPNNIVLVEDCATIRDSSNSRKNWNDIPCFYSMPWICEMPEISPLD
# [2] = molecular target: T2, C-type lectin domain family 4 member E (Homo sapiens) (UniProt Q9ULY5); test: Induction of human Mincle expressed in NFAT-GFP reporter cells assessed as induction of mincle-mediated NFAT signaling activity by measuring stimulation of GFP reporter activity at 0.001 to 0.1 nmol/well incubated for 18 hrs by flow cytometry; format: cell-based; settings: filed as agonist, dose 0.001-0.1 nmol
# T2 sequence (whole entry): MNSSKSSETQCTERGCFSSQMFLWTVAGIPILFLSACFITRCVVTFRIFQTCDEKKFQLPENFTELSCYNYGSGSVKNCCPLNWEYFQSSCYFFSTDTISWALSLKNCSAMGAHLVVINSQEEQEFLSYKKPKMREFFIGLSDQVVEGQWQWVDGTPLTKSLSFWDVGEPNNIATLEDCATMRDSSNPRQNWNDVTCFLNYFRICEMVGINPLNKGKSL
# [3] = Solubility of the compound in 1 mM DMSO; format: physicochemical
# [4] = molecular target: T1, C-type lectin domain family 4 member E (Mus musculus); test: Induction of mouse Mincle expressed in NFAT-GFP reporter cells assessed as induction of mincle-mediated NFAT signaling activity by measuring stimulation of GFP reporter activity at 0.1 nmol/well incubated for 18 hrs by flow cytometry; format: cell-based; settings: filed as agonist
# [5] = molecular target: T2, C-type lectin domain family 4 member E (Homo sapiens); test: Induction of human Mincle expressed in NFAT-GFP reporter cells assessed as induction of mincle-mediated NFAT signaling activity by measuring stimulation of GFP reporter activity at 0.1 nmol/well incubated for 18 hrs by flow cytometry; format: cell-based; settings: filed as agonist
# [6] = Solubility of the compound in 8 mM DMSO; format: physicochemical; settings: 8000 µM
Structure (SMILES),Activity [1],Activity [2],solubility [3],Activity [4],Activity [5],solubility [6]
CCCCCCCCCCCCC(=O)CCCCCCCCC(=O)OC[C@@H]1O[C@@H](O[C@H]2O[C@H](COC(=O)CCCCCCCCC(=O)CCCCCCCCCCCC)[C@@H](O)[C@H](O)[C@H]2O)[C@@H](O)[C@H](O)[C@H]1O,Active,Active,,,,
CCCCCCCCC(N)CCCCCCCCC(=O)OC[C@@H]1O[C@@H](O[C@H]2O[C@H](COC(=O)CCCCCCCCC(N)CCCCCCCC)[C@@H](O)[C@H](O)[C@H]2O)[C@@H](O)[C@H](O)[C@H]1O (some centres undefined),Active,Active,Soluble,,,
CCCCCCCCCCCCCCCCCCCCCCCC(C(=O)OC[C@@H]1O[C@@H](O[C@H]2O[C@H](COC(=O)C(CCCCCCCCCCCCCCCCCCCCCCC)C(O)CCCCCCCCCCCCCCCCCC3CC3CCCCCCCCCCCCCCC3CC3CCCCCCCCCCCCCCCCCC)[C@@H](O)[C@H](O)[C@H]2O)[C@@H](O)[C@H](O)[C@H]1O)C(O)CCCCCCCCCCCCCCCCCC1CC1CCCCCCCCCCCCCCC1CC1CCCCCCCCCCCCCCCCCC (some centres undefined),,,,Active,Active,
CCCCCCCCCCCCC(O)CCCCCCCCC(=O)OC[C@@H]1O[C@@H](O[C@H]2O[C@H](COC(=O)CCCCCCCCC(O)CCCCCCCCCCCC)[C@@H](O)[C@H](O)[C@H]2O)[C@@H](O)[C@H](O)[C@H]1O (some centres undefined),Active,Active,Soluble,,,
CCCCCCC(N)CCCCCCCCCCC(=O)OC[C@@H]1O[C@@H](O[C@H]2O[C@H](COC(=O)CCCCCCCCCCC(N)CCCCCC)[C@@H](O)[C@H](O)[C@H]2O)[C@@H](O)[C@H](O)[C@H]1O (some centres undefined),Active,Active,,,,
CCCCCCCC(O)CCCCCCCCCC(=O)OC[C@@H]1O[C@@H](O[C@H]2O[C@H](COC(=O)CCCCCCCCCC(O)CCCCCCC)[C@@H](O)[C@H](O)[C@H]2O)[C@@H](O)[C@H](O)[C@H]1O (some centres undefined),Active,Active,,,,
CCCCCCCCCCCCCCCCCC(=O)OC[C@@H]1O[C@@H](O[C@H]2O[C@H](COC(=O)CCCCCCCCCCCCCCCCC)[C@@H](O)[C@H](O)[C@H]2O)[C@@H](O)[C@H](O)[C@H]1O,,,,Active,Active,
CCCCCCCCC(O)CCCCCCCCC(=O)OC[C@@H]1O[C@@H](O[C@H]2O[C@H](COC(=O)CCCCCCCCC(O)CCCCCCCC)[C@@H](O)[C@H](O)[C@H]2O)[C@@H](O)[C@H](O)[C@H]1O (some centres undefined),,,,Active,Active,Soluble
CCCCCCC(=O)CCCCCCCCCCC(=O)OC[C@@H]1O[C@@H](O[C@H]2O[C@H](COC(=O)CCCCCCCCCCC(=O)CCCCCC)[C@@H](O)[C@H](O)[C@H]2O)[C@@H](O)[C@H](O)[C@H]1O,Active,Active,,,,
CCCCCCCCCCCCC(N)CCCCCCCCC(=O)OC[C@@H]1O[C@@H](O[C@H]2O[C@H](COC(=O)CCCCCCCCC(N)CCCCCCCCCCCC)[C@@H](O)[C@H](O)[C@H]2O)[C@@H](O)[C@H](O)[C@H]1O (some centres undefined),Active,Active,,,,
CCCCCCCCC(=O)CCCCCCCCC(=O)OC[C@@H]1O[C@@H](O[C@H]2O[C@H](COC(=O)CCCCCCCCC(=O)CCCCCCCC)[C@@H](O)[C@H](O)[C@H]2O)[C@@H](O)[C@H](O)[C@H]1O,Active,Active,,,,
CCCCCCCCCCC(O)CCCCCCC(=O)OC[C@@H]1O[C@@H](O[C@H]2O[C@H](COC(=O)CCCCCCC(O)CCCCCCCCCC)[C@@H](O)[C@H](O)[C@H]2O)[C@@H](O)[C@H](O)[C@H]1O (some centres undefined),Active,Active,,,,
CCCCCCC(O)CCCCCCCCCCC(=O)OC[C@@H]1O[C@@H](O[C@H]2O[C@H](COC(=O)CCCCCCCCCCC(O)CCCCCC)[C@@H](O)[C@H](O)[C@H]2O)[C@@H](O)[C@H](O)[C@H]1O (some centres undefined),Active,Active,,,,
